The NIST ThermoML archive (doi:10.1016/j.jct.2006.07.023)
Values joined by “and” are separate entries in the source; they are usually repeats but may differ in a detail not shown here. Equal values may be shown once. Numbers after ± are expanded uncertainties.

Tests used:
[1] = Molar enthalpy of transition or fusion; conditions: DSC
[2] = DTA

Structure (SMILES) | Molar enthalpy of transition or fusion ([1]; Crystal) | Molar enthalpy of transition or fusion ([1]; Metastable crystal) | Triple point temperature ([2]; Crystal) | Glass transition temperature [2] | Triple point temperature ([2]; Metastable crystal)
CCCC(=O)[O-].CCCC(=O)[O-].[Pb+2] [lead(2+) dibutanoate] | 3.51 kcal/mol and 3.49 kcal/mol | 1.84 ± 0.191 kcal/mol | 346.5 ± 0.7 K and 346.3 ± 0.9 K | 1.8 ± 3 °C | 322.8 ± 1.1 K
CCC(=O)[O-].CCC(=O)[O-].[Pb+2] [lead(2+) dipropanoate] | 3.13 ± 0.0956 kcal/mol |  | 398.1 ± 1.1 K | 25 ± 3 °C | 
CC(=O)[O-].CC(=O)[O-].[Pb+2] [lead(2+) acetate] | 3.78 ± 0.0956 kcal/mol |  | 452.3 ± 1.6 K | 41.2 ± 3 °C | 
